Measurements as given in patent publication US20090156509A1, “Tri-peptide Inhibitors of Serine Elastases” (Accuthera, Inc., priority 2007, published 2009).
In brackets after ≈: the same amount, converted by molar mass.

How the values were obtained:
[1] = Protein binding in dog plasma by equilibrium dialysis; format: in vitro ADME; conditions: 10 μM, 6 hours at 37° C.
Experimental: Protein binding of test compounds in dog plasma was assessed by performing equilibrium dialysis with plasma containing test compound (10 μM) against 0.1 M PBS (pH 7.4). Following incubation (6 hours at 37° C.), the parent compound was measured in both plasma and buffer compartments by LC-MS and the percentage of compound bound to plasma proteins determined. […] Generally it is believed that only the unbound drug is available for pharmacological action.

[2] = target: T1, HNE (human neutrophil elastase) (Homo sapiens, UniProt P08246); test: HNE enzyme inhibition, kinetic Ki determination; format: biochemical; conditions: for Ki: substrate MeO-Suc-Ala-Ala-Pro-Val-pNA, pH 7.6, read-out: Ki (NE)
T1 construct: Enzymes PR3 and HNE (HLE) were purchased from Athens Research and Technology (Athens, Ga.) or Elastin Products (Owensville, Mich.); purchased Athens Research and Technology (Athens, Ga.) or Elastin Products (Owensville, Mich.)
T1 sequence (P08246 30-267): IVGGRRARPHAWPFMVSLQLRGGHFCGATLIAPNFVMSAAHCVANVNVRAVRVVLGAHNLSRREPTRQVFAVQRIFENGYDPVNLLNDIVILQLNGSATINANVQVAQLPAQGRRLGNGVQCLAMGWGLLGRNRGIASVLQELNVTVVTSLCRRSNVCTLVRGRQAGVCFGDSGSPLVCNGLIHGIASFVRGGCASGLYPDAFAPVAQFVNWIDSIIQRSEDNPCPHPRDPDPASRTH
Experimental: (§1) The assays for measurement of PR3 and HNE enzyme and inhibitory activity were performed generally as described by Coeschott et al., Proc. Nat. Acad. Sci. USA, 96: 6261-6266, (1999). Kinetic characterization was performed generally by the techniques of Wieczorek et al., Archives of Biochem. and BioPhys., 367: 193-201 (1999). Enzymes PR3 and HNE (HLE) were purchased from Athens Research and Technology (Athens, Ga.) or Elastin Products (Owensville, Mich.).
(§2) The substrate used for HNE was MeO-Suc-Ala-Ala-Pro-Val-pNA, in 0.05 M sodium phosphate/0.1 M NaCl, pH 7.6, containing 0.001% Triton X-100 and 5% DMSO. The substrate used for PR3 was Boc-Ala-Pro-Nva-4-chloro-SBzl in 0.05 M potassium phosphate/0.1 M KCl, pH 7.6, containing 0.001% Triton X-100, and 10% DMSO. The cleavage of the thiobenzyl ester was detected with 250 μM […] (5′,5′-dithiobis-2-nitrobenzoic acid).
The concentration of active site of HNE was determined by titration with N-benzyloxycarbonyl-Ala-Ala-Pro-azaAla p-nitrophenyl ester or an alternative method. For the alternative method, the concentration of the active center of a HNE solution was first titrated with the above p-nitrophenyl ester, this HNE solution was then used to measure the active center concentration of an eglin c solution. Aliquots of the eglin c solution were stored at −70° C. and employed as a second standard to assay the activity of any newly prepared HNE solutions. No change in the activity of eglin c could be detected over a 3 year time interval as long as the solution was stored at −70° C. An important factor which influences the HNE assay is the method of dissolution of lyophilized enyme: if HNE is obtained in the lyophilized state, the protease solution should be dissolved, aliquoted, and stored at −20° C. for at least 48 hours prior to assay, so that the dried protein can be completely hydrated. Freshly dissolved enzyme which has not been stored for 48 hours may have proteolytic activity which is 10%-20% less that of stored enzyme.
Consequently, it is not always easy to achieve conditions in which the initial concentration of free inhibitor, [I]o, is much larger than the initial concentration of free enzyme, [E]o, i.e. the condition of [I]o≧10 [E]o is not easily fulfilled. […]
can only be employed when the condition of [I]o≧10 [E]o is fulfilled. In those cases in which the condition of [I]o≧10 [E]o is not met, the experimental data is analyzed using the Henderson equations according to the classic procedure (Henderson, P. J. F. Biochem. J. 127: 321, 1972) or with equations derived for slow-binding inhibition (Ying, Q-L. et al, Biochemistry 33: 5445, 1994). […]

[3] = Solubility in 0.1 M PBS by LC-MS; format: physicochemical; conditions: aqueous buffer, kinetic from dmso stock; 0.1 M PBS pH 7.4, 2% DMSO, 2 hours at 37° C.
Experimental: Solubility of test compounds was measured by adding small volumes of DMSO stock solutions (final concentration 2% DMSO) to 0.1 M PBS (pH 7.4) and incubating for 2 hours at 37° C. Subsequently, the samples were filtered and the concentration of test compounds was determined by LC-MS.

[4] = target: T2, PR3 (human neutrophil proteinase 3) (Homo sapiens, UniProt P24158); test: PR3 enzyme inhibition, Ki determination; format: biochemical; conditions: substrate Boc-Ala-Pro-Nva-4-chloro-SBzl, pH 7.6
T2 construct: Enzymes PR3 and HNE (HLE) were purchased from Athens Research and Technology (Athens, Ga.) or Elastin Products (Owensville, Mich.); purchased Athens Research and Technology (Athens, Ga.) or Elastin Products (Owensville, Mich.)
T2 sequence (P24158 28-248): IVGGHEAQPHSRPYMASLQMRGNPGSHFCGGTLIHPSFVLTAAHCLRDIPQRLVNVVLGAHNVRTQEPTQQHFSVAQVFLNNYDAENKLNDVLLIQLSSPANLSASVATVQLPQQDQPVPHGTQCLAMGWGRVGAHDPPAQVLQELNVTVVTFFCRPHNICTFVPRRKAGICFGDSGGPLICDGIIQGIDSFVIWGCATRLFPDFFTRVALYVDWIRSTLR
Experimental: as §1, §2

[5] = Plasma stability in dog plasma; format: in vitro ADME; conditions: 37° C., 2 hours, read-out: Plasma Stability (t1/2)
Experimental: Plasma stability of test compounds was accessed by incubating with dog plasma (37° C. at 1 μM) for 2 hours. Aliquots were taken at pre-defined times and the disappearance of parent compound was monitored by LC-MS.

Structure (SMILES) | Plasma Protein Binding (% free) [1] | Ki [2] | Ki for HLE (in words) ([2]; tight binding inhibitor of HLE) | solubility at 2 h [3] | Ki [4] | half-life at 1 μM [5] | Protein binding in dog plasma (% bound) [1]
Cc1cccc(Cc2nnc(C(=O)[C@@H](NC(=O)[C@@H]3CCCN3C(=O)[C@@H](NC(=O)OCc3ccccc3)C(C)C)C(C)C)o2)c1 [CE-2072, reference compound] | 1.0 % free | 0.24 nM | subnanomolar range | < 10 µM | 24 nM | > 1.67 h | –
CC(C)[C@H](NC(=O)[C@@H]1CCCN1C(=O)[C@@H](NC(=O)CCCCCNC(=O)c1ccccn1)C(C)C)C(=O)c1nnc(C(C)(C)C)o1 [AI-168] | 17.0 % free | 0.2 nM | – | 179 µM (≈ 115 µg/mL) | 3.9 nM | > 1.67 h | 83 % bound
CC(C)[C@H](NC(=O)CCCCCNC(=O)c1ccccn1)C(=O)N1CCC[C@H]1C(=O)N[C@H](C(=O)C(F)(F)F)C(C)C [AI-167] | 19.0 % free | – | – | 164 µM (≈ 95.7 µg/mL) | – | > 1.67 h | 81 % bound
CC(C)[C@H](NC(=O)[C@@H]1CCCN1C(=O)[C@@H](NC(=O)CCCCCNC(=O)c1ccccn1)C(C)C)C(=O)c1nnc(-c2ccccc2)o1 [AI-158] | 8.0 % free | 0.22 nM | – | 69 µM (≈ 45.5 µg/mL) | 8.4 nM | > 1.67 h | 92 % bound
